Experiment [1] concerns Pseudomonas aeruginosa ATCC 27853. In words: MIC, serial broth microdilution, P. aeruginosa. Particulars: 24 h, 37 °C. The class given is cell-based. As to the method:
(§1) The values of MIC, defined as the lowest concentration of antimicrobial complex that prevents visible growth of germs, are presented in Table S4 in the Supplementary Material. To quantify the copper complexes effectiveness as antibacterial agents, their minimum inhibitory concentrations (MICs) were determined using the serial broth microdilution method described by Quinn et al. and Markey et al.. The method was adapted for the purposes of the current study, according to the standards developed by the Clinical and Laboratory Standards Institute. The tests were performed on the same Gram-positive and Gram-negative reference microbial strains. Ten successive dilutions of the copper complexes solutions (1/2 to 1/1024) in nutrient broth (Merck KGaA, Darmstadt, Germany) were performed and then were placed in sterile microplates (one each for every copper complex). The microplates were incubated at 37 ± 2 °C for 24 h. Comparisons of the amount of bacterial growth in each well containing copper complexes solutions with the amount of growth in the growth control wells were performed and the maximal dilution for which the tested copper complexes inhibited bacterial growth was determined.
On the technique in general: In broth dilution the organism is exposed to a series of concentrations in liquid medium.

The subject of experiment [2] is human cervical carcinoma line (HeLa). In words: MTT cytotoxicity assay, HeLa. The class given is cell-based. Particulars: HeLa cells. As for the experimental part:
(§2) Three cell lines were used to determine the cytotoxicity of the complexes, a human cervical carcinoma line (HeLa), a human radical growth phase melanoma cell line (WM35), and a normal fibroblastic epithelial cell line (HFL1) using the MTT method. The cells were exposed to C1 and C2 complexes in different concentrations (50, 25, 12.5, 2, and 0.2 µM) at 24, 48, and 72 h. As positive contro, cisplatin was used.
(§3) To determine the cytotoxicity of the copper complexes, three cell lines were used: a human cervical carcinoma line (HeLa), a human radical growth phase melanoma cell line (WM35), and a normal fibroblastic epithelial cell line (HFL1). The cell lines were obtained from ATCC (American Type Cell Collection, Manassas, VA 20110-2209, USA) and were maintained in DMEM (Sigma-Aldrich, Saint Louis, Missouri, USA) supplemented with 10% fetal bovine serum (Hyclone), 1 mM glutamine (Sigma-Aldrich), and 1% antibiotic antimycotic 100× (Sigma-Aldrich). The cells were cultured at 37 °C in an atmosphere of 5% CO2 and 95% relative humidity.
(§4) The cytotoxicity assays were performed using the MTT assay (3-(4,5-dimethylthiazol-2-yl)-2,5-diphenyl tetrazolium bromide-Sigma Aldrich). Cells were plated at a density of 1 × 10^5 cells/well in 96-well plates for 24 h in normal propagation media. The cultures were then exposed to C1 and C2 complexes in different concentrations (50, 25, 12.5, 2, and 0.2 µM). The complexes were first solubilized in DMSO (Sigma) and then serial dilutions in media were performed until the final concentration of DMSO was less than 1%. As a positive control, cisplatin (Ebewe Pharma Ges.m.b.H. Nfg. KG, Austria) was used, in the same concentrations as the complexes. As a negative control, cell lines cultivated in normal expansion medium with the same amount of DMSO added were used. The cellular viability was determined using the MTT assay at 24, 48, and 72 h, respectively. Formazan particles were solubilized with DMSO and absorbances were determined at 550 nm using a microplate reader (Bio-Rad, Hercules, CA, USA). The cytotoxic activity, expressed as IC50 values representing the complex solution required to inhibit 50% of the cell proliferation, were calculated from the calibration curve by nonlinear regression. Each experiment was carried out in triplicate.
For orientation: Tetrazolium dyes change colour on reduction, which living cells bring about.

Experiment [3] relates to Escherichia coli ATCC 10536. In words: MIC, serial broth microdilution, E. coli. The experiment is classed as cell-based. Particulars: 24 h, 37 °C. As to the method: as §1
Experiment [4] concerns Staphylococcus aureus ATCC 6538P. In words: MIC, serial broth microdilution, S. aureus. The experiment is classed as cell-based. The note with it: 24 h, 37 °C. As for the experimental part:
as §1

The subject of a further experiment is supercoiled pUC18 DNA. In words: DNA cleavage (nuclease activity), agarose gel electrophoresis with H2O2/ascorbic acid. The experiment is classed as biochemical. The note with it: 37 °C; for effect of sodium azide on the ability to destroy the nucleic acid molecule: complex 10 μM, ascorbic acid/H2O2, 1 h, NaN3 400 mM; for concentration at which the circular shape of DNA appears / concentration at which the linear shape of DNA appears: pUC18, cacodylate buffer 0.1 M pH 6.0, H2O2/ascorbic acid, 1 h. The text has this:
The activity of the complexes as chemical nucleases was studied using supercoiled pUC18 DNA in cacodylate buffer (0.1M, pH 6.0) in the presence of H2O2/ascorbic acid, with a 3.0-fold excess relative to the complex concentration. The efficiency of the complexes was compared with that of both copper sulfate and bis(o-phenanthroline) Cu^+2 complex under the same reaction conditions.
The nuclease activity of the complexes C1 and C2 was studied in the presence of certain inhibiting agents: DMSO, t-butyl alcohol, distamycin, sodium azide, 2,2,6,6-tetramethyl-4-piperidone, superoxide dismutase, and neocuproine, in an attempt to determine the ROS involved in the degradation process of the DNA molecule. We chose a concentration of 10 μM for the complexes and a concentration […] for the reducing agents ascorbic acid/H2O2. The incubation period of the samples was 1 h, at 37 °C. The resulting electropherograms are presented in Figure S8 in the Supplementary Material.
Reactions were performed by mixing 7 μL of cacodylate buffer 0.1 M, pH 6 (cacodylic acid/sodium cacodylate), 6 μL of complex solution (final concentrations: 5, 10, 15, and 20 μM), 1 μL of pUC18 DNA solution (0.25 μg/μL, 750 μM in base pairs), and 6 μL of activating agent solution (H2O2/ascorbic acid) in a 3-fold molar excess relative to the concentration of the complex. The resulting solutions were incubated for 1 h at 37 °C, after which a quench buffer solution (3 μL) consisting of bromophenol blue (0.25%), xylene cyanol (0.25%), and glycerol (30%) was added. The solution was then subjected to electrophoresis on 0.8% agarose gel in 0.5 × TBE buffer (0.045 M Tris, 0.045 M boric acid, and 1 mM EDTA) containing 5 μL/100 mL of a solution of ethidium bromide (10 mg/mL) at 100 V for 2 h. The bands were photographed on a capturing system (Gelprinter Plus TDI).
To test for the presence of reactive oxygen species (ROS) generated during strand scission and for possible complex–DNA interaction sites, various reactive oxygen intermediate scavengers and groove binders were added to the reaction mixtures. The scavengers used were 2,2,6,6-tetramethyl-4-piperidone (0.5 M), dimethylsulfoxide (DMSO) 14 M, t-butyl alcohol (10.5 M), sodium azide (NaN3) (400 mM), and superoxide dismutase (SOD) (15 units). In addition, a chelating agent of copper(I) and neocuproine (36 μM), along with the groove binder distamycin (80 μM) were also assayed. Samples were treated as described above.

Experiment [5] concerns human radical growth phase melanoma cell line (WM35). The experiment is described as follows: MTT cytotoxicity assay, WM35. The experiment is classed as cell-based. Particulars: for IC50: WM35 cells, MTT. As to the method: as §2, §3, §4

A word on the MIC: it is the least concentration at which growth counts as inhibited. A higher MIC goes with a need for much substance. The IC50 is the midpoint of a concentration-inhibition curve.

“[Cu(N-(5-(4-Methylphenyl)-[1,3,4]-Thiadiazole-2-yl) Naphtalenesulfonamidate)2(H2O)3] [C1]”: the MIC in experiment [1] is 0.196 µg/mL; in experiment [3], 0.231 µg/mL; in experiment [4] it was 0.289 µg/mL. Besides, the 50% inhibitory concentration (IC50) in experiment [2] (24 h) worked out at 33.18 ± 0.19 µM; in experiment [2] (48 h), 16.36 ± 0.12 µM; in experiment [2] (72 h) it was 6.47 ± 0.06 µM; in experiment [5] (24 h), 41.35 ± 0.19 µM; in experiment [5] (48 h), 23.87 ± 0.17 µM; in experiment [5] (72 h), 15.42 ± 0.08 µM. Besides, in the experiment on supercoiled pUC18 DNA, the “effect of sodium azide on the ability to destroy the nucleic acid molecule” value is “little effect”. Also, the “concentration at which the circular shape of DNA appears” value with supercoiled pUC18 DNA was 15 µM. In the experiment with supercoiled pUC18 DNA, the “concentration at which the linear shape of DNA appears” value came to 20 µM.
Regarding “[Cu(N-(5-Ethyl--[1,3,4]-Thiadiazole-2-yl) Naphtalenesulfonamidate)2(py)2(H2O)] [C2]”, the MIC in experiment [1] came to 0.089 µg/mL; in experiment [3], 0.184 µg/mL; in experiment [4] it was 0.202 µg/mL. For the same substance, the IC50 came to 8.79 ± 0.21 µM in experiment [2] (24 h); 4.06 ± 0.05 µM in experiment [2] (48 h); 1.45 ± 0.09 µM in experiment [2] (72 h); 13 ± 0.15 µM in experiment [5] (24 h); 8.11 ± 0.13 µM in experiment [5] (48 h); 4.66 ± 0.07 µM in experiment [5] (72 h). The “effect of sodium azide on the ability to destroy the nucleic acid molecule” value in the experiment on supercoiled pUC18 DNA is “little effect”. The “concentration at which the circular shape of DNA appears” value in the experiment on supercoiled pUC18 DNA amounted to 10 µM. Also, in the experiment on supercoiled pUC18 DNA, the “concentration at which the linear shape of DNA appears” value was determined as 15 µM. Also, the “IC50 value compared with cisplatin” value in experiment [5] (WM35 cell lines, 24 h) is “about two times lower”.

Values taken from paper PMC9144936, “New Cu^+2 Complexes with N-Sulfonamide Ligands: Potential Antitumor, Antibacterial, and Antioxidant Agents” (Molecules, 2022).
